Data reported in patent US20250136559A1, “SMO MODULATOR COMPOUNDS” (OMASS THERAPEUTICS LIMITED, priority 2022, published 2025).

Key:
Type in all cases: cell-based
mouse SMO^WT = biological target: T1, mouse SMO^WT (Mus musculus, UniProt P56726); assay: Mouse assay: Gli1 qPCR in MEF cells stably expressing mouse SMO WT; details: mSHh-treated, 24 hours; for IC50: Gli1 inhibition by qPCR, read-out: Mouse WT pIC50 (converted); for Mouse WT % Inh: percentage Gli1 inhibition
T1 construct: expressed in transfected cells
Experimental: (§1) Cell culture. All materials were purchased from Sigma-Aldrich, unless otherwise stated.
(§2) Compound treatment. […] After 1 hour incubation, cells were treated with assay medium containing mSHh prepared at 2.5× of final assay concentrations specified in the text and incubated for a further 24 hours at 37′C in a humidified 95% air/5% CO2 atmosphere prior to qPCR analysis.
(§3) Cell lysis and one-step qPCR. The Cells-to-CT™ 1-Step TaqMan® Kit was used in conjunction with TaqMan primer-probe assays for the detection of Gli1 (FAM, Mm00494654_m1) and Gusb (VIC, Mm01197698_m1) genes (all purchased from Life Technologies). Following 24 hours cell treatment, spent medium was removed and cells were washed with PBS before the application of lysis and stop solution as per manufacturer's instructions. The qPCR reactions were run in a 384-well PCR plate using master mix prepared according to manufacturer's instructions and cell lysate samples from treatment wells. Real-time PCR amplification was detected using the Bio-Rad CFX384 Touch PCR system. Four experimental replicates (two cell replicates and two qPCR replicates) were performed for each compound concentration tested. Real-time data were analysed using the CFX Maestro software (Bio-Rad) and obtained expression values were converted to percentage Gli1 inhibition by normalising to the average Gli1 expression of mSHh-treated control samples.

mouse SMO^D473H = biological target: T2, mouse SMO^D473H (Mus musculus, UniProt P56726, D477H); assay: Mouse assay: Gli1 qPCR in MEF cells stably expressing mouse SMO D473H; details: mSHh-treated, 24 hours; for IC50: Gli1 inhibition by qPCR, read-out: Mouse D473H pIC50 (converted); for Mouse D473H % Inh: percentage Gli1 inhibition
T2 construct: expressed in transfected cells
Experimental: as §1, §2, §3

mouse SMO^W535L = biological target: T3, mouse SMO^W535L (Mus musculus, UniProt P56726, W539L); assay: Mouse assay: Gli1 qPCR in MEF cells stably expressing mouse SMO W535L; details: mSHh-treated, 24 hours; for IC50: Gli1 inhibition by qPCR, read-out: Mouse W535L pIC50 (converted); for Mouse W535L % Inh: percentage Gli1 inhibition
T3 construct: expressed in transfected cells
Experimental: as §1, §2, §3

T2 sequence (P56726 33-793 D477H): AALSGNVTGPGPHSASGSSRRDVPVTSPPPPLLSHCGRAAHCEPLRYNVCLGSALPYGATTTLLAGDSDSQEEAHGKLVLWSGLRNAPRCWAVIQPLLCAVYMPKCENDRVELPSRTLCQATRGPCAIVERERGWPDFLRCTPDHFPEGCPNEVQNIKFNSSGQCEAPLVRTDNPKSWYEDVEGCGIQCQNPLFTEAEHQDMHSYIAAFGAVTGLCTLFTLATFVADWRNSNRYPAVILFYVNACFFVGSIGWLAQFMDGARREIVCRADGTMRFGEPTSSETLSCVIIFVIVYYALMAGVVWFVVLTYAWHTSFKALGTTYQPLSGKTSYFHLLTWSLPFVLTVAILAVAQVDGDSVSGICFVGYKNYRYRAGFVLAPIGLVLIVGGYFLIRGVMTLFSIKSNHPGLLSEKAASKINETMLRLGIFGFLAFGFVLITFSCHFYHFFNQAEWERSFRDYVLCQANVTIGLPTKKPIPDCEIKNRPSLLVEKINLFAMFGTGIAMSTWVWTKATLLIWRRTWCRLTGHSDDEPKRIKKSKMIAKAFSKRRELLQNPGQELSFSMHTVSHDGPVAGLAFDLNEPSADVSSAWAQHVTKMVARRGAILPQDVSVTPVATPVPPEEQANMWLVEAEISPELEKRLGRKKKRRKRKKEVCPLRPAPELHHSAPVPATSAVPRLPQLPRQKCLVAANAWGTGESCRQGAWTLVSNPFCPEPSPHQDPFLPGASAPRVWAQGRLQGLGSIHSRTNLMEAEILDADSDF
T1 sequence (P56726 33-793): as the sequence (P56726 33-793 D477H) above, with H445D counted along it
T3 sequence (P56726 33-793 W539L): as the sequence (P56726 33-793 D477H) above, with H445D, W507L counted along it

| Structure (SMILES) | IC50 (mouse SMO^WT) [nM] | Mouse WT % Inh (mouse SMO^WT) [%] | IC50 (mouse SMO^D473H) [nM] | Mouse D473H % Inh (mouse SMO^D473H) [%] | IC50 (mouse SMO^W535L) [nM] | Mouse W535L % Inh (mouse SMO^W535L) [%] |
| --- | --- | --- | --- | --- | --- | --- |
| O=C(Nc1ccc(-c2nc(C3CC3)n[nH]2)cc1)c1cccc(CN2CCSCC2)c1 [Example 1-1, N-[4-(3-cyclopropyl-1H-1,2,4-triazol-5-yl)phenyl]-3-(thiomorpholin-4-ylmethyl)benzamide] | 20 | 99.4 | 200 | 99.3 | 251 | 66.8 |
| O=C(Nc1ccc(-c2nc(-c3cccc(F)c3)n[nH]2)cc1)c1cccc(CN2CCS(=O)(=O)CC2)c1 [Example 3-10, 3-[(1,1-Dioxo-1,4-thiazinan-4-yl)methyl]-N-[4-[3-(3-fluorophenyl)-1H-1,2,4-triazol-5-yl]phenyl]benzamide] | 12.6 | 99.1 | 251 | 97.9 | 100 | 63.9 |
| Cl.O=C(Nc1ccc(-c2nc(C3CC3)no2)cc1)c1cccc(CN2CCS(=O)(=O)CC2)c1 [Example 4-11, N-[4-(3-Cyclopropyl-1,2,4-oxadiazol-5-yl)phenyl]-3-[(1,1-dioxo-1,4-thiazinan-4-yl)methyl]benzamide] | 50.1 | 99.7 | 158 | 99.5 | 158 | 63.8 |
| O=C(Nc1ccc(-c2nc(Cc3ccc4c(c3)OCCO4)n[nH]2)cc1)c1cccc(CN2CCS(=O)(=O)CC2)c1 [Example 3-28, N-[4-[3-(2,3-Dihydro-1,4-benzodioxin-6-ylmethyl)-1H-1,2,4-triazol-5-yl]phenyl]-3-[(1,1-dioxo-1,4-thiazinan-4-yl)methyl]benzamide] | 79.4 | 99.4 | 794 | 97.7 | 316 | 59.7 |
| O=C(Nc1ccc(-c2nc(-c3cccc(Cl)c3)n[nH]2)cc1)c1cccc(CN2CCS(=O)(=O)CC2)c1 [Example 3-11, N-[4-[3-(3-Chlorophenyl)-1H-1,2,4-triazol-5-yl]phenyl]-3-[(1,1-dioxo-1,4-thiazinan-4-yl)methyl]benzamide] | 10 | 98.4 | 100 | 98.5 | 501 | 62.5 |
| Cl.O=C(Nc1ccc(-c2nnc(C3CC3)o2)cc1)c1cccc(CN2CCS(=O)(=O)CC2)c1 [Example 4-8, N-[4-(5-Cyclopropyl-1,3,4-oxadiazol-2-yl)phenyl]-3-[(1,1-dioxo-1,4-thiazinan-4-yl)methyl]benzamide] | 79.4 | 98.9 | 794 | 94.9 | 501 | 65.9 |
| O=C(Nc1ccc(-c2nc(C3CCCN(Cc4ccccc4)C3)n[nH]2)cc1)c1cccc(CN2CCS(=O)(=O)CC2)c1 (stereo not drawn) [Example 3-9, N-[4-[3-(1-Benzylpiperidin-3-yl)-1H-1,2,4-triazol-5-yl]phenyl]-3-[(1,1-dioxo-1,4-thiazinan-4-yl)methyl]benzamide] | 31.6 | 95.1 | 316 | 93.8 | 63.1 | 63.2 |
| O=C(Nc1ccc(-c2cc(C3CC3)on2)cc1)c1cccc(CN2CCS(=O)(=O)CC2)c1 [Example 4-7, N-[4-(5-Cyclopropyl-1,2-oxazol-3-yl)phenyl]-3-[(1,1-dioxo-1,4-thiazinan-4-yl)methyl]benzamide] | 2.51 | 98.8 | 20 | 99.3 | 31.6 | 76.0 |
| O=C(Nc1ccc(-c2nc(-c3cccc(Oc4nccs4)c3)n[nH]2)cc1)c1cccc(CN2CCS(=O)(=O)CC2)c1 [Example 3-13, 3-[(1,1-Dioxo-1,4-thiazinan-4-yl)methyl]-N-[4-[3-[3-(1,3-thiazol-2-yloxy)phenyl]-1H-1,2,4-triazol-5-yl]phenyl]benzamide] | 79.4 | 97.4 | 631 | 78.5 | > 3310 | 76.7 |
| O=C(Nc1ccc(-c2nc(Cc3cc(Cl)ccc3Cl)n[nH]2)cc1)c1cccc(CN2CCS(=O)(=O)CC2)c1 [Example 3-26, N-[4-[3-[(2,5-Dichlorophenyl)methyl]-1H-1,2,4-triazol-5-yl]phenyl]-3-[(1,1-dioxo-1,4-thiazinan-4-yl)methyl]benzamide] | 15.8 | 98.3 | 501 | 87.1 | 251 | 64.8 |
| O=C(Nc1ccc(-c2nc(C3CC3)n[nH]2)cc1)c1ccc(F)c(CN2CCS(=O)(=O)CC2)c1 [Example 2-3, N-[4-(5-Cyclopropyl-1H-1,2,4-triazol-3-yl)phenyl]-3-[(1,1-dioxo-1,4-thiazinan-4-yl)methyl]-4-fluorobenzamide] | 20 | 94.4 | 158 | 93.9 | 79.4 | 76.5 |
| Cn1nc(-c2ccc(NC(=O)c3cccc(CN4CCS(=O)(=O)CC4)c3)nc2)cc1C1CC1 [Example 5-5, N-[5-(5-cyclopropyl-1-methylpyrazol-3-yl)pyridin-2-yl]-3-[(1,1-dioxo-1,4-thiazinan-4-yl)methyl]benzamide] | 31.6 | 97.7 | 100 | 93.2 | 631 | 61.1 |
| Cc1nc(-c2ccc(NC(=O)c3cccc(CN4CCS(=O)(=O)CC4)c3)cc2)oc1C [Example 4-1, N-[4-(4,5-Dimethyl-1,3-oxazol-2-yl)phenyl]-3-[(1,1-dioxo-1,4-thiazinan-4-yl)methyl]benzamide] | 6.31 | 99.2 | 50.1 | 98.6 | 63.1 | 78.6 |
| O=C(Nc1ccc(-c2cc(Cc3ccccc3)n[nH]2)cc1)c1cccc(CN2CCS(=O)(=O)CC2)c1 [Example 4-21, N-[4-(3-Benzyl-1H-pyrazol-5-yl)phenyl]-3-[(1,1-dioxo-1,4-thiazinan-4-yl)methyl]benzamide] | 6.31 | 99.3 | 63.1 | 99.4 | 39.8 | 76.6 |
| O=C(Nc1ccc(-c2noc(Cc3ccccc3)n2)cc1)c1cccc(CN2CCS(=O)(=O)CC2)c1 [Example 4-15, N-[4-(5-Benzyl-1,2,4-oxadiazol-3-yl)phenyl]-3-[(1,1-dioxo-1,4-thiazinan-4-yl)methyl]benzamide] | 6.31 | 99.0 | 31.6 | 99.4 | 31.6 | 82.0 |
| Cl.Cn1nc(-c2ccc(NC(=O)c3cccc(CN4CCS(=O)(=O)CC4)c3)cc2)nc1C1CC1 [Example 4-27, N-[4-(5-cyclopropyl-1-methyl-1,2,4-triazol-3-yl)phenyl]-3-[(1,1-dioxo-1,4-thiazinan-4-yl)methyl]benzamide] | 6.31 | 99.5 | 50.1 | 98.5 | 158 | 77.7 |
